{
  "source": "patent US20250345378A1",
  "about": "(priority 2022, published 2025)",
  "key": {"[1]": {"tested_on": "304 E. coli clinical isolates", "assay_type": "cell-based, Escherichia coli", "settings": "304-isolate panel", "method": "(§1) Phage cocktail CK618 was tested in combination with and alongside antibiotics against two isolate panels. The first assay used a panel of 88 contemporaneous urinary tract infection (UTI) isolates from North America, Europe, Latin America, and Asia. […] The second assay used a panel made up of a 300-strain clinical isolate panel (Table 14) with an additional 4 strains of interest. […] Four of the same SOC antibiotics tested against the 88-isolate panel were tested against this panel. The non-SOC antibiotics were not included due to their limited use in clinical settings, and nitrofurantoin was not included due to the low probability of resistance to this drug.\n(§2) For both isolate panels, antibiotic concentrations tested were determined by using Clinical and Laboratory Standards Institute (CLSI) or European Committee on Antimicrobial Susceptibility Testing (EUCAST) breakpoints at concentrations that kill susceptible isolates but allow intermediate or resistant isolates to grow in the standard AST microdilution assay (Table 17).\n(§3) The composition of the proposed Phase 2 CRISPR-enhanced bacteriophage (CRISPR-phage, hereafter termed ‘crPhage’) cocktail (CK618) has been updated from the CK570 to include six bacteriophages as compared to three bacteriophages in CK570. Bacteriophage cocktail CK618, was prepared such that all bacteriophages had equivalent titers in the final cocktail. The cocktail was then mixed with bacteria to obtain final titers of 1×10^6 plaque-forming unit (PFU)/mL/phage for the cocktail and 1×10^5 colony-forming unit (CFU)/mL for the bacteria, resulting in a multiplicity of infection (MOI) of 10 for each bacteriophage in a sample. Briefly, 5 μl of each sample (CK618 alone, CK618 and antibiotics, antibiotics alone, or medium alone) was added to 5 μl of optical density (OD)-normalized bacterial isolate and 40 μl LB medium. Reactions were incubated at 37° C. with shaking and OD measurements were taken each hour for 20 hours.\n(§4) Host range percentage is the percent of isolates that responded to treatment of antibiotics or CK618. In the case of the 88-isolate panel, results were analyzed on the complete panel as well as the subset of classified as multidrug-resistant (MDR) (n=21) and beta-lactam-resistant (n=31).\n(§5) The first assay used a panel of 88 contemporaneous isolates. Twenty-one of those strains are classified as MDR, with resistance to 3 or more antibiotic classes. […] The second assay used the panel made up of a 300-strain clinical isolate panel with an additional 4 strains of interest.\n(§6) Antibiotic concentrations tested were determined by using CLSI or EUCAST breakpoints at concentrations that kill susceptible strains but allow intermediate or resistant strains to grow in the standard AST microdilution assay (Table 27). LBP-EC01 v.2 was combined with bacteria resulting in a MO of 10 for each bacteriophage in a sample. In the case of the 88-isolate panel, results were analyzed on the complete panel as well as the subset of isolates classified as multidrug-resistant (MDR) (n=21) and beta-lactam-resistant (n=31)."}, "[2]": {"tested_on": "88 urinary tract infection E. coli isolates", "assay_type": "cell-based, Escherichia coli", "method": "as §1, §2, §3, §4, §5, §6"}, "[3]": {"tested_on": "E. coli (ATCC 700928)", "test": "Mouse UTI model, CK618 with TMP/SMX vs single agents and Phase 1b LBP-EC01 (Study 21-LOC-035)", "assay_type": "in vivo, C3H/OuJ mice", "settings": "BID IV at 48, 54, 72, 78, 96 hours p.i.", "method": "For the LBP-EC01 from the Phase 1b study treatment, animals received the Phase 1 Clinical Trial Material. Bactrim was formulated at a concentration of 6.3 mg/mL."}},
  "note": "Like-named read-outs stand apart in the source and are kept apart here.",
  "data": [
    {"substance": "Trimethoprim/Sulfamethoxazole [TMP/SXT]", "values": [
      {"measurement": "Host range % on MDR subset (n = 93), Combination: Antibiotic + LBP-CK618", "setting": "[1]", "value": 75.3, "unit": "%"},
      {"measurement": "Host range % on MDR subset (n = 93), Single agent treatment", "setting": "[1]", "value": 17.2, "unit": "%"},
      {"measurement": "Host range % on beta-lactam-resistant subset (n = 91), Combination: Antibiotic + LBP-CK618", "setting": "[1]", "value": 78.0, "unit": "%"},
      {"measurement": "Host range % on beta-lactam-resistant subset (n = 91), Single agent treatment", "setting": "[1]", "value": 29.7, "unit": "%"},
      {"measurement": "Host Range % on MDR Subset (n = 93), Combination Antibiotic + LBP-EC01 v.2", "setting": "[1]; MDR subset, antibiotic combined with LBP-EC01 v.2", "value": 75.3, "unit": "%"},
      {"measurement": "Host range % on MDR subset (n = 93), Single agent treatment", "setting": "[1]; MDR subset, single agent", "value": 17.2, "unit": "%"},
      {"measurement": "Host Range % on all Strains (n = 304), Combination: Antibiotic + LBP-EC01 v.2", "setting": "[1]; all strains, antibiotic combined with LBP-EC01 v.2", "value": 81.9, "unit": "%"},
      {"measurement": "Host Range % on all Strains (n = 304), Single agent treatment", "setting": "[1]; all strains, single agent", "value": 46.4, "unit": "%"},
      {"measurement": "Host Range % on Beta-lactam-Resistant Subset (n = 91), Combination: Antibiotic + LBP-EC01 v.2", "setting": "[1]; beta-lactam-resistant subset, antibiotic combined with LBP-EC01 v.2", "value": 78.0, "unit": "%"},
      {"measurement": "Host range % on beta-lactam-resistant subset (n = 91), Single agent treatment", "setting": "[1]; beta-lactam-resistant subset, single agent", "value": 29.7, "unit": "%"},
      {"measurement": "Host Range % on Beta-lactam-Resistant Subset (n = 31), Combination: Antibiotic + CK618 v.2", "setting": "[2]; 88-isolate panel", "value": 83.9, "unit": "%"},
      {"measurement": "Host Range % on Beta-lactam-Resistant Subset (n = 31), Single agent treatment", "setting": "[2]; 88-isolate panel", "value": 25.8, "unit": "%"},
      {"measurement": "Host Range % on MDR Subset (n = 21), Combination: Antibiotic + CK618 v.2", "setting": "[2]; 88-isolate panel", "value": 82.5, "unit": "%"},
      {"measurement": "Host Range % on MDR Subset (n = 21), Single agent treatment", "setting": "[2]; 88-isolate panel", "value": 19.0, "unit": "%"},
      {"measurement": "Host Range % on all Strains (n = 88), Single agent treatment", "setting": "[2]; antibiotic at breakpoint concentration (Table 17), cocktail 1 × 10^6 PFU/ml per bacteriophage, MOI 10", "value": 42.8, "unit": "%"},
      {"measurement": "Host Range % on all Strains (n = 88), Combination: Antibiotic + CK618 v.2", "setting": "[2]; antibiotic at breakpoint concentration plus cocktail 1 × 10^6 PFU/ml per bacteriophage", "value": 85.6, "unit": "%"},
      {"measurement": "bacterial burden in bladder relative to vehicle and LBP-EC01 from the Phase 1b study, monotherapy", "setting": "[3]", "value": "significant decrease in bacterial burden"}
    ]}
  ]
}
